Reference: BigSolDB 2.1

[NH3+]O.[NH3+]O.[O-]n1nnnc1-c1nnnn1[O-]
solubility (mole fraction)
Conditions	in DMF	in DMSO	in ethanol	in ethyl acetate	in formic acid	in toluene	in water
293.15 K	6.38e-05	0.00122	3.87e-06	1.93e-06	0.000213	1.85e-05	2.42e-05
298.15 K	7.18e-05	0.00131	4.82e-06	2.16e-06	0.000231	2.2e-05	2.83e-05
303.15 K	9.56e-05	0.00149	5.92e-06	2.37e-06	0.00025	2.44e-05	3.29e-05
308.15 K	0.000142	0.00159	7.19e-06	2.72e-06	0.00028	2.6e-05	3.59e-05
313.15 K	0.000183	0.00179	8.16e-06	3.16e-06	0.000302	2.89e-05	4.17e-05
318.15 K	0.000225	0.00191	9.64e-06	3.56e-06	0.000347	3.24e-05	4.84e-05
323.15 K	0.000269	0.00211	1.21e-05	3.92e-06	0.000392	3.69e-05	5.5e-05
